Laboratory results from patent US20240009159A1, “ANTIVIRAL COMPOSITION FOR SARS-COV-2 AND HCOV-OC43 COMPRISING RHEIN, MECLOFENAMIC ACID, OR A COMBINATION THEREOF” (SEOUL NATIONAL UNIVERSITY R&DB FOUNDATION, priority 2020, published 2024).
Read-outs that look alike come from different tables or passages of the source.

Assays:
HCoV-OC43 [1] = test: viral RNA level by qRT-PCR in HCoV-OC43-infected HCT-8 cells; format: cell-based, human coronavirus OC43 (HCoV-OC43)
HCoV-OC43 [2] = test: viral RNA level by qRT-PCR in HCoV-OC43-infected Vero cells; format: cell-based, human coronavirus OC43 (HCoV-OC43); settings: for viral RNA level of N (normalized to GAPDH): control DMSO
SARS-CoV-2 [3] = format: cell-based; settings: MA at 50 μM, treated two hours before infection; SARS-CoV-2-infected differentiated HBEC cells, 3.3×10^4 PFU; 48 hours after infection
SARS-CoV-2 [4] = format: cell-based; settings: SARS-CoV-2-infected Vero cells
SARS-CoV-2 [5] = format: cell-based; settings: SARS-CoV-2-infected Calu-3 cells
[6] = rhein at 25 μM, MOI 0.05, 24 hours after infection, control DMSO

| SMILES | viral RNA level of N (normalized to GAPDH) (HCoV-OC43 [1]; MA at 50 μM, control DMSO and ethanol) | viral RNA level of N (normalized to GAPDH) (HCoV-OC43 [2]; MA at 10 μM, 25 μM, 50 μM, and 100 μM) | viral RNA levels (nsp12, M, and N, normalized to GAPDH) compared with the control group (SARS-CoV-2 [3]) | viral RNA levels of nsp12, M, and N (normalized to GAPDH) compared with the control group (SARS-CoV-2 [4]; MA at 50 μM, control ethanol) | viral RNA levels of nsp12, M, and N (normalized to GAPDH) compared with the control group (SARS-CoV-2 [5]; MA at 50 μM, control ethanol) | viral RNA level of N (normalized to GAPDH) (HCoV-OC43 [1]; rhein at 250 μM and 25 μM, 24 hours after infection, control DMSO+Ethanol) | dose dependence of inhibition of the RNA level of N (HCoV-OC43 [2]; increasing concentration of rhein (5-50 μM), FIG. 1D) | viral RNA level of N (normalized to GAPDH) (HCoV-OC43 [2]; rhein at 5 μM, 10 μM, 25 μM, and 50 μM, 24 hours after infection) | viral RNA levels of nsp12, M, and N (normalized to GAPDH) compared with the control group (SARS-CoV-2 [4]; [6]) | viral RNA levels of nsp12, M, and N (normalized to GAPDH) compared with the control group (SARS-CoV-2 [5]; [6]) |
| --- | --- | --- | --- | --- | --- | --- | --- | --- | --- | --- |
| Cc1ccc(Cl)c(Nc2ccccc2C(=O)O)c1Cl [MA, meclofenamic acid] | significantly inhibited | significantly inhibited | ≤ 40% | less than 5% | less than 5% |  |  |  |  |  |
| O=C(O)c1cc(O)c2c(c1)C(=O)c1cccc(O)c1C2=O [rhein, 4,5-dihydroxy-9,10-dioxoanthracene-2-carboxylic acid] |  |  |  |  |  | significantly inhibited | dose-dependent effect was confirmed | significantly inhibited | less than 30% | less than 5% |
